Measurements from US7767679B2, “Sulfonylamino-derivatives as novel inhibitors of histone deacetylase” (Janssen Pharmaceutica N.V., priority 2002, dated 2010).

How the values were obtained:
[1] = biological target: histone deacetylase (HeLa nuclear extracts); test: In vitro assay for inhibition of histone deacetylase; assay type: biochemical; settings: HeLa nuclear extracts 60 μg/ml, [3H]acetylated histone H4 peptide substrate, 30 min
Procedure: The in vitro assay for inhibition of histone deacetylase (see example C.1) measures the inhibition of HDAC enzymatic activity obtained with the compounds of formula (I).
HeLa nuclear extracts (supplier: Biomol) were incubated at 60 μg/ml with 2×10^−8 M of radiolabeled peptide substrate. As a substrate for measuring HDAC activity a synthetic peptide, i.e. the amino acids 14-21 of histone H4, was used. The substrate is biotinylated at the NH2-terminal part with a 6-aminohexanoic acid spacer, and is protected at the COOH-terminal part by an amide group and specifically [^3H]acetylated at lysine 16. The substrate, biotin-(6-aminohexanoic)Gly-Ala-([^3H]-acetyl-Lys-Arg-His-Arg-Lys-Val-NH2), was added in a buffer containing 25 mM Hepes, 1 M sucrose, 0.1 mg/ml BSA and 0.01% Triton X-100 at pH 7.4. After 30 min the deacetylation reaction was terminated by the addition of HCl and acetic acid. (final concentration […] respectively). After stopping the reaction, the free ^3H-acetate was extracted with ethylacetate. After mixing and centrifugation, the radioactivity in an aliquot of the upper (organic) phase was counted in β-counter.
For each experiment, controls (containing HeLa nuclear extract and DMSO without compound), a blank incubation (containing DMSO but no HeLa nuclear extract or compound) and samples (containing compound dissolved in DMSO and HeLa nuclear extract) were run in parallel. In first instance, compounds were tested at a concentration of 10^−5M. […] In each test the blank value was substracted from both the control and the sample values. The control sample represented 100% of substrate deactylation. For each sample the radioactivity was expressed as a percentage of the mean value of the controls. […] Herein the effects of test compounds are expressed as pIC50 (the negative log value of the IC50-value).

[2] = test system: A2780 ovarian carcinoma cells; test: Antiproliferative activity on A2780 cells (MTT); assay type: cell-based; settings: Homo sapiens, 96 h, four days of incubation, read-out: Cellular activity pIC50 (converted)
Procedure: Cellular activity of the compounds of formula (I) was determined on A2780 tumour cells using a colorimetric assay for cell toxicity or survival (Mosmann Tim, Journal of Immunological Methods 65: 55-63, 1983)(see example C.2).
All compounds tested were dissolved in DMSO and further dilutions were made in culture medium. Final DMSO concentrations never exceeded 0.1% (v/v) in cell proliferation assays. Controls contained A2780 cells and DMSO without compound and blanks contained DMSO but no cells. MTT was dissolved at 5 mg/ml in PBS. A glycine buffer comprised of 0.1 M glycine and 0.1 M NaCl buffered to pH 10.5 with NaOH (1 N) was prepared (all reagents were from Merck).
The human A2780 ovarian carcinoma cells (a kind gift from Dr. T. C. Hamilton [Fox Chase Cancer Centre, Pennsylvania, USA]) were cultured in RPMI 1640 medium supplemented with 2 mM L-glutamine, 50 μg/ml gentamicin and 10% fetal calf serum. Cells were routinely kept as monolayer cultures at 37° C. in a humidified 5% CO2 atmosphere. Cells were passaged once a week using a trypsin/EDTA solution at a split ratio of 1:40. All media and supplements were obtained from Life Technologies. Cells were free of mycoplasma contamination as determined using the Gen-Probe Mycoplasma Tissue Culture kit (supplier: BioMérieux).
Cells were seeded in NUNC™ 96-well culture plates (Supplier: Life Technologies) and allowed to adhere to the plastic overnight. Densities used for plating were 1500 cells per well in a total volume of 200 μl medium. After cell adhesion to the plates, medium was changed and drugs and/or solvents were added to a final volume of 200 μl. Following four days of incubation, medium was replaced by 200 μl fresh medium and cell density and viability was assessed using an […] assay. To each well, 25 μl μl MTT solution was added and the cells were further incubated for 2 hours at 37° C. The medium was then carefully aspirated and the blue MT-formazan product was solubilized by addition of 25 μl glycine buffer followed by 100 μl of DMSO. […] Within an experiment, the results for each experimental condition are the mean of 3 replicate wells. For initial screening purposes, compounds were tested at a single fixed concentration of 10^−6 M. For active compounds, the experiments were repeated to establish full concentration-response curves. For each experiment, controls (containing no drug) and a blank incubation (containing no cells or drugs) were run in parallel. The blank value was subtracted from all control and sample values. For each sample, the mean value for cell growth (in absorbance units) was expressed as a percentage of the mean value for cell growth of the control. […] Herein the effects of test compounds are expressed as pIC50 (the negative log value of the IC50-value).

Row | melting point | Enzyme activity pIC50 [1] | IC50 [2] | Compound
1 | 115 °C |  |  | O=C(NO)c1cnc(N2CCN(CCCNS(=O)(=O)c3ccc4ccccc4c3)CC2)nc1 (hydrate or solvate) [Co. No. 26]
2 |  | 7.432 | 643 nM | CN(C)c1ccc(-c2ccccc2S(=O)(=O)NCC2CCN(c3ncc(C(=O)NO)cn3)CC2)cc1 [compound 44]
3 | 217 °C | 7.074 | 7780 nM | O=C(NO)c1cnc(N2CCC(CNS(=O)(=O)N3CCOCC3)CC2)nc1 [Co. No. 28]
4 |  | 7.526 | 556 nM | O=C(NO)c1cnc(N2CCN(CCNS(=O)(=O)c3ccc4ccccc4c3)CC2)nc1 [compound 32]
5 |  | 6.523 | 5280 nM | O=C(NO)c1ccc(N2CCC(NS(=O)(=O)c3ccc4ccccc4c3)CC2)cc1 [Co. No. 1]
6 | 80 °C | <5 | 2090 nM | O=C(NO)c1cnc(N2CCC(NS(=O)(=O)c3ccc4ccccc4c3)CC2)nc1N1CCN(S(=O)(=O)c2ccc3ccccc3c2)CC1 [Co. No. 6]
7 |  | 6.95 | > 10000 nM | O=C(NO)c1ccc(N2CCC(NS(=O)(=O)c3ccc4ccccc4c3)C2)nc1 (stereo not drawn) [compound 17]
8 |  | 7.438 | 2910 nM | O=C(NO)c1ccc(N2CCC(NS(=O)(=O)c3ccc4ccccc4c3)CC2)nc1 [compound 12]
9 |  | 7.337 | 2400 nM | O=C(NO)c1cnc(N2CCC(N(CCO)S(=O)(=O)c3ccc4ccccc4c3)CC2)nc1 [compound 34]
10 | 158 °C | 7.49 | 1660 nM | CN(C1CCN(c2ncc(C(=O)NO)cn2)C1)S(=O)(=O)c1ccc2ccccc2c1 (stereo not drawn) [Co. No. 27]
11 |  | 7.046 | 1160 nM | COCCN(C1CCN(c2ncc(C(=O)NO)cn2)CC1)S(=O)(=O)c1ccc2ccccc2c1 [compound 35]
12 |  | 7.273 | 685 nM | O=C(NO)c1cnc(N2CCC(CNS(=O)(=O)c3ccccc3-c3ccsc3)CC2)nc1 [compound 40]
13 | 142 °C | 6.893 | 2120 nM | O=C(NO)c1ccc(N2CCCC(NS(=O)(=O)c3ccc4ccccc4c3)CC2)nc1 (stereo not drawn) [Co. No. 10]
14 | 217 °C | 6.449 | > 10000 nM | O=C(NO)c1cnc(N2CCC(NS(=O)(=O)N3CCOCC3)CC2)nc1 [Co. No. 25]
15 |  | 7.371 | 513 nM | COc1ccc(-c2ccccc2S(=O)(=O)NCC2CCN(c3ncc(C(=O)NO)cn3)CC2)cc1 [compound 45]
16 |  | 6.293 | > 10000 nM | O=C(NO)c1ccc(N2CCC(NS(=O)(=O)c3ccc4ccccc4c3)C2)cc1 (stereo not drawn) [compound 16]
17 |  | 7.341 | 2180 nM | O=C(NO)c1cnc(N2CCC(CNS(=O)(=O)c3ccccc3-c3cccc(CO)c3)CC2)nc1 [compound 37]
18 |  | 6.662 | 3370 nM | CO[C@@H]1CN(c2ncc(C(=O)NO)cn2)CC[C@@H]1NS(=O)(=O)c1ccc2ccccc2c1 [compound 23]

Row | melting point | Enzyme activity pIC50 [1] | IC50 [2] | Compound
19 |  | 7.614 | 2140 nM | CS(=O)(=O)c1ccc(-c2ccccc2S(=O)(=O)NCC2CCN(c3ncc(C(=O)NO)cn3)CC2)cc1 [Co. No. 30]
20 |  | 5.321 | 49.8 nM | O=C(NO)c1ccc(N2CCC(NS(=O)(=O)c3ccc(-c4ccccc4)cc3)C2)nc1 (stereo not drawn) [compound 18]
21 |  | 7.126 | 885 nM | Cc1cccc(-c2ccccc2S(=O)(=O)NCC2CCN(c3ncc(C(=O)NO)cn3)CC2)c1 [compound 39]
22 |  | <5 | 4300 nM | O=C(Nc1ccc(N2CCC(NS(=O)(=O)c3ccc4ccccc4c3)CC2)cc1)/C(Cc1ccccc1)=N/O [compound 19]
23 |  | 7.469 | 738 nM | O=C(NO)c1cnc(N2CCC(CNS(=O)(=O)c3ccccc3-c3cc4ccccc4o3)CC2)nc1 [compound 43]
24 |  | 7.584 | 455 nM | COc1cccc(-c2ccccc2S(=O)(=O)NCC2CCN(c3ncc(C(=O)NO)cn3)CC2)c1 [compound 42]
25 |  | 8.199 | 362 nM | O=C(NO)c1cnc(N2CCC(CNS(=O)(=O)c3ccc(-c4ccccc4)cc3)CC2)nc1 [compound 21]
26 |  | 7.85 | 546 nM | O=C(NO)c1cnc(N2CCN(CCCNS(=O)(=O)c3ccc4ccccc4c3)CC2)nc1 [Co. No. 26]
27 |  | 7.857 | 5960 nM | O=C(NO)c1cnc(N2CCC(NS(=O)(=O)c3ccc4ccccc4c3)C2)nc1 (stereo not drawn) [compound 31]
28 |  | 6.116 | 2090 nM | O=C(NO)c1ccc(N2CCC(NS(=O)(=O)c3ccc(-c4ccccc4)cc3)CC2)cc1 [compound 14]
29 | 262 °C | <5 | 1800 nM | O=C(Nc1ccc(N2CCC(NS(=O)(=O)c3ccc(-c4ccccc4)cc3)CC2)cc1)/C(Cc1ccccc1)=N/O [Co. No. 3]
30 | > 260 °C | 7.04 | 3720 nM | CN(C1CCN(c2ncc(C(=O)NO)cn2)CC1)S(=O)(=O)c1ccc2ccccc2c1 [Co. No. 29]
31 |  | 7.265 | 1050 nM | O=C(NO)c1cnc(N2CCC(CNS(=O)(=O)c3ccccc3-c3ccc(CO)cc3)CC2)nc1 [compound 36]
32 |  | 5.428 | 698 nM | Cc1cc(C(=O)NO)ccc1N1CCC(NS(=O)(=O)c2ccc(-c3ccccc3)cc2)CC1 [compound 13]
33 |  | 7.903 | 1070 nM | O=C(NO)c1cnc(N2CCCC(NS(=O)(=O)c3ccc4ccccc4c3)CC2)nc1 (stereo not drawn) [compound 24]
34 |  | 7.403 | 471 nM | Cc1ccccc1-c1ccccc1S(=O)(=O)NCC1CCN(c2ncc(C(=O)NO)cn2)CC1 [compound 41]
35 |  | 5.829 | 1640 nM | Cc1cc(C(=O)NO)ccc1N1CCC(NS(=O)(=O)c2ccc3ccccc3c2)CC1 [compound 11]
36 |  | 7.154 | 1160 nM | O=C(NO)c1cnc(N2CCC(CNS(=O)(=O)c3ccccc3-c3ccoc3)CC2)nc1 [compound 38]
